Data reported in patent publication US9682033B2, “Methods of treating postherpetic neuralgia with a topical formulation of a spiro-oxindole compound” (Teva Pharmaceuticals International GmbH, priority 2015, dated 2017).
Values joined by “and” are separate entries in the source; they are usually repeats but may differ in a detail not shown here. Equal values may be shown once. Read-outs that look alike come from different tables or passages of the source.

Experiments:
[1] = target: 3A4 (CYP3A4) (Homo sapiens, UniProt P08684); assay: Reaction phenotyping with recombinant human CYP450 enzymes: CYP3A4; type: in vitro ADME
Sequence of 3A4 (CYP3A4) (P08684 whole entry): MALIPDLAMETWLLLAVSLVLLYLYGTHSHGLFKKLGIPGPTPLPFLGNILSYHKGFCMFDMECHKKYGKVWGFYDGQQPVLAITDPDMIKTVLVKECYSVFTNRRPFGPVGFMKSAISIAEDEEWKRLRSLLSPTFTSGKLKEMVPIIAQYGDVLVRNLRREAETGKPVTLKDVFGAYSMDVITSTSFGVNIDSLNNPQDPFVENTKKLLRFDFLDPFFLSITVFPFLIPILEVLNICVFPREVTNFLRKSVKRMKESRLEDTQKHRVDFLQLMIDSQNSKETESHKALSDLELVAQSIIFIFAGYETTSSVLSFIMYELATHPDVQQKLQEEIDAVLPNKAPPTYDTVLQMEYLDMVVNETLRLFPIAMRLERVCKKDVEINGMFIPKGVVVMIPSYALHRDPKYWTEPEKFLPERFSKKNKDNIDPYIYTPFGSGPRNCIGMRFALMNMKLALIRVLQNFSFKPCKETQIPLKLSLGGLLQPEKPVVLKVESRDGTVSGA

[2] = Metabolite identification in samples (in vitro and in vivo); type: in vitro ADME; details: samples (in vitro and in vivo) from rats, dogs, and humans
From the text: (§1) A total of 8 metabolites were identified in samples (in vitro and in vivo) from rats, dogs, and humans. All metabolites found in humans were also found in the Good Laboratory Practice (GLP) toxicology species, the rat. Following oral administration of spiro-oxindole compound to humans, spiro-oxindole compound and 3 of its metabolites (M1, M5, and M6) were measurable. A similar metabolic profile was observed following topical administration to humans, albeit at much lower plasma concentrations, except metabolite M1 was not detected following human topical administration.

[3] = Mouse local lymph node assay; type: in vivo
[4] = system: CCI model of neuropathic pain; assay: Chronic constriction injury (CCI) model of neuropathic pain; details: rat, in vivo
[5] = system: CYP3A4; assay: Drug-drug interaction study in dogs, oral spiro-oxindole compound with iv midazolam as CYP3A4 substrate; type: in vivo; details: oral administration
[6] = Protein binding in dog plasma; type: in vitro ADME
[7] = target: CYP3A4 (Homo sapiens, UniProt P08684); assay: Drug-drug interaction study in healthy subjects: midazolam (CYP3A4 substrate) pharmacokinetics (Biological Example 5); details: human, in vivo
Sequence of CYP3A4 (Homo sapiens, UniProt P08684) (P08684 whole entry): as above
From the text: This was a single center, open-label, 1-sequence drug-drug interaction study in 32 healthy adult male and female subjects. The study consisted of a 28-day screening period, a 10-day inpatient treatment period, and a follow-up visit. Subjects meeting the study inclusion/exclusion requirements were admitted to the clinical research unit on day −1 and were confined until day 10.
Blood samples were collected for the assessment of the pharmacokinetics of midazolam and omeprazole.
The primary pharmacokinetic endpoints were the geometric mean ratios (90% confidence intervals [CIs]) for Cmax, AUC0-t, and AUC0-inf for midazolam and omeprazole on day 9 versus day 1.
Blood samples were collected for the assessment of the pharmacokinetics of the major metabolites of midazolam (1-OH-midazolam) and omeprazole (5-OH-omeprazole), and for the spiro-oxindole compound. Further secondary pharmacokinetic variables included Cmax, tmax, AUC0-t, AUC0-inf, CL/F, λz, t1/2, and % AUCext for 1-OH-midazolam and 5-OH-omeprazole, on days 1 and 9, and Cmax, morning predose concentrations (Ctrough), average plasma concentration over the dosing interval (Cave), and area under the plasma concentration-time curve over the dosing interval (AUC0-τ) were presented for the spiro-oxindole compound.
Descriptive statistics (n, mean, geometric mean, standard deviation [SD], % CV, median, minimum, and maximum) were used to summarize plasma midazolam, omeprazole and their metabolites, and the spiro-oxindole compound concentration for all subjects overall at each scheduled time point. Descriptive statistics (as noted above) were also used to summarize plasma omeprazole, 5-OH-omeprazole, and the spiro-oxindole compound concentration for all subjects overall by CYP2C19 genotype at each scheduled time point. Pharmacokinetic parameters were derived by noncompartmental analysis. Descriptive statistics (as noted above) were used to summarize the calculated pharmacokinetic parameters for midazolam, omeprazole and their metabolites, and the spiro-oxindole compound by treatment for all subjects. Descriptive statistics (as noted above) were also used to summarize the calculated pharmacokinetic parameters for omeprazole, 5-OH-omeprazole, and the spiro-oxindole compound by treatment and CYP2C19 genotype. Plots of geometric mean and individual plasma concentrations and of select pharmacokinetic parameters for midazolam, omeprazole and their metabolites and the spiro-oxindole compound at select sampling times were provided. Additionally, plots of individual select pharmacokinetic parameters by CYP2C19 phenotype for omeprazole at select time points were provided.

[8] = Protein binding in human plasma; type: in vitro ADME
[9] = system: complete Freund's adjuvant (CFA) model of inflammatory pain; assay: Complete Freund's adjuvant (CFA) model of inflammatory pain; type: in vivo; details: rat, topical
[10] = target: CYP450 2D6 (Homo sapiens, UniProt P10635); assay: Reaction phenotyping with recombinant human CYP450 enzymes: CYP2D6; type: in vitro ADME; details: recombinant human CYP450 2D6
Sequence of CYP450 2D6 (P10635 whole entry): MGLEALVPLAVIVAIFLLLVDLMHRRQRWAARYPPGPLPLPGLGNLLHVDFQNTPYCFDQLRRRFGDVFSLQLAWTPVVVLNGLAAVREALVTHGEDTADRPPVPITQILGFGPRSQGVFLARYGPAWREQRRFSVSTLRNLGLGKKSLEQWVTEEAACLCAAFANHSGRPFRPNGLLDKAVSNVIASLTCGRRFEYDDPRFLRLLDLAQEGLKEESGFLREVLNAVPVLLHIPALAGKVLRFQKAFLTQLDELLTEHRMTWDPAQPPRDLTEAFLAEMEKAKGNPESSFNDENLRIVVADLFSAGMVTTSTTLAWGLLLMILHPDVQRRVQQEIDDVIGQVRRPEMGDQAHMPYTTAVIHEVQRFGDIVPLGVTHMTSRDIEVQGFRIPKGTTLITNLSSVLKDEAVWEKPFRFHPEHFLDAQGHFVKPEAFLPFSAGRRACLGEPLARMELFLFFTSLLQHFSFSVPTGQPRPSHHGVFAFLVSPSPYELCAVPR

[11] = system: dog hepatocytes; assay: In vitro metabolic stability in hepatocytes (dog); type: in vitro ADME; details: ^14C-spiro-oxindole compound
From the text: as §1

[12] = target: NaV1.7 (Homo sapiens, UniProt Q15858); assay: In vitro electrophysiological studies: block of NaV1.7; type: biochemical; details: fold greater for the inactivated state
Sequence of NaV1.7 (Q15858 whole entry): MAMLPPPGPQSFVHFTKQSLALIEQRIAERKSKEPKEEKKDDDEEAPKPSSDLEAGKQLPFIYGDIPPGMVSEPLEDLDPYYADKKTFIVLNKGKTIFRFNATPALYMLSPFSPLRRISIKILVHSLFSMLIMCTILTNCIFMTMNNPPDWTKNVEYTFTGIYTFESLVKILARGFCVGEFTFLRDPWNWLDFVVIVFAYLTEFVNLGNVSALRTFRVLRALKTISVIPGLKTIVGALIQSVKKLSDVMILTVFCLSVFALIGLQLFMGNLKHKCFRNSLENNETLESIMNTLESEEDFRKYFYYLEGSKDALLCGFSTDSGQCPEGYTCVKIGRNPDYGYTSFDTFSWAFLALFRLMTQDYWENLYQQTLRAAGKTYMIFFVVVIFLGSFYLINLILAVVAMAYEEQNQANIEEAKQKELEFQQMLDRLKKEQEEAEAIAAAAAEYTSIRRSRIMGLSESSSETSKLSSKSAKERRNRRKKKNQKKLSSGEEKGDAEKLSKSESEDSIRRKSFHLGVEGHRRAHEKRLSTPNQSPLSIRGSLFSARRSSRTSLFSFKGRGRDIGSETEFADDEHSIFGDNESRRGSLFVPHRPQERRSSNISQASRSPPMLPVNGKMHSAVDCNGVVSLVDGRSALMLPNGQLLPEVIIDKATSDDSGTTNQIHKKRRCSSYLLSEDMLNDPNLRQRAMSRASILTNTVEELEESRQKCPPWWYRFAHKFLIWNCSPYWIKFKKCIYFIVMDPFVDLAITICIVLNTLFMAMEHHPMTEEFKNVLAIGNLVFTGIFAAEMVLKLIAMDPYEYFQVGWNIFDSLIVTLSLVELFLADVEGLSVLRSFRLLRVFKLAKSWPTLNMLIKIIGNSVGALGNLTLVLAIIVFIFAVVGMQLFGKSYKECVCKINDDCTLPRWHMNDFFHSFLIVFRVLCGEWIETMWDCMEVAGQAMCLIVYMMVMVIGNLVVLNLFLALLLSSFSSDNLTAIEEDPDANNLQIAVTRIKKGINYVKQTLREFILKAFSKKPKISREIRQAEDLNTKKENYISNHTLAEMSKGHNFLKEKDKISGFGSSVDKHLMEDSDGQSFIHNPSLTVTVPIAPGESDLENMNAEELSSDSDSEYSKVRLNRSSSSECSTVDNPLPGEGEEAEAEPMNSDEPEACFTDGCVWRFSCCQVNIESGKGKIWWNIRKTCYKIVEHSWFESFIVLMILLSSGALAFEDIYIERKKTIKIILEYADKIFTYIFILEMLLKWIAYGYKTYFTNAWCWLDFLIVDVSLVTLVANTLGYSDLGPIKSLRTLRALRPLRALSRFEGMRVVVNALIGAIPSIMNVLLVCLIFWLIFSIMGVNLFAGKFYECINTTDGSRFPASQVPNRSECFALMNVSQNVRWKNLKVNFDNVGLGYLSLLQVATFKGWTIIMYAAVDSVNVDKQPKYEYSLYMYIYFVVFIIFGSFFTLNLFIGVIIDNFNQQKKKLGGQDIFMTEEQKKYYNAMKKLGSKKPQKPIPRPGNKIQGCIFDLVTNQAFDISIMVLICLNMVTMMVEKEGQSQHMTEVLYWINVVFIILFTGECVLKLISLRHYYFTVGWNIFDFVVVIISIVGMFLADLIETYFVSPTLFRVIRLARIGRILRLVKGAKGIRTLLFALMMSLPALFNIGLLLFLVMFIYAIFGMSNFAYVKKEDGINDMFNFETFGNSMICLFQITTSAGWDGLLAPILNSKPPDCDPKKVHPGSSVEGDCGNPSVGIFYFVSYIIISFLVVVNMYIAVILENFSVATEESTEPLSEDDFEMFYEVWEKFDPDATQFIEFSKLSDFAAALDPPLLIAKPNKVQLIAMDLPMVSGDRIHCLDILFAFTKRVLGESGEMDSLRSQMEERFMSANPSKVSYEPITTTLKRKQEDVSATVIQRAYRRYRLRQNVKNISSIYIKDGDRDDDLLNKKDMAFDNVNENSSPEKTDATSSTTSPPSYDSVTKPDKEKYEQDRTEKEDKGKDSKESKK
From the text: NaV1.7 is expressed primarily in the peripheral nervous system in both sensory and sympathetic neurons (Raymond, C. K., et al., op. cit.). Loss-of-function mutations in SCN9A (the gene encoding the alpha subunit of the NaV1.7 sodium channel) cause a human condition known as congenital indifference to pain characterized by an inability to perceive pain (Cox, J. J., et al., Nature (2006), 444:894-98; Goldberg, Y. P., et al., Clin Genet (2007), 71:311-9). Gain-of-function mutations in SCN9A are associated with inherited erythromelalgia (IEM) (Drenth, J. P., et al., J Invest Dermatology (2005), 124:1333-8), which is characterized by spontaneous or easily evoked severe pain. Furthermore, up to 29% of biopsy-proven cases of idiopathic small-fiber neuropathy manifesting mainly as distal severe pain (Faber, C. G., et al., Ann Neurol (2012), 71:26-39) are associated with gain-of-function NaV1.7 channel mutations.

[13] = system: rat hepatocytes; assay: In vitro metabolic stability in hepatocytes (rat); type: in vitro ADME; details: ^14C-spiro-oxindole compound
From the text: as §1

[14] = target: CYP450 2C9 (Homo sapiens, UniProt P11712); assay: Reaction phenotyping with recombinant human CYP450 enzymes: CYP2C9; type: in vitro ADME; details: recombinant human CYP450 2C9
Sequence of CYP450 2C9 (P11712 whole entry): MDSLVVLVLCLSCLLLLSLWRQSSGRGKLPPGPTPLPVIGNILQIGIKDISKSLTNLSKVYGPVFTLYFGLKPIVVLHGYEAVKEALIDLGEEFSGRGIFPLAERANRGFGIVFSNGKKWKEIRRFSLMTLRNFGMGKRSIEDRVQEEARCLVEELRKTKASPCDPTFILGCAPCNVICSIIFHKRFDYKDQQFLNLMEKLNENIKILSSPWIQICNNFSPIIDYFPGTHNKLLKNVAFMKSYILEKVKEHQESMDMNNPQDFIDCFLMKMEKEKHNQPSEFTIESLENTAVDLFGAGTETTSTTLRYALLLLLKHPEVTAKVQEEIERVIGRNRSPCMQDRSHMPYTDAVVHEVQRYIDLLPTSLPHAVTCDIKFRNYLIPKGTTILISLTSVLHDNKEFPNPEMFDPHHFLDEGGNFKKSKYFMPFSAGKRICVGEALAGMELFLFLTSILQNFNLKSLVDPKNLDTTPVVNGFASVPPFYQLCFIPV

[15] = system: minipig hepatocytes; assay: In vitro metabolic stability in hepatocytes (minipig); type: in vitro ADME; details: ^14C-spiro-oxindole compound
From the text: as §1

[16] = system: rat bone marrow; assay: In vivo rat bone marrow micronucleus test (GLP)
From the text: The spiro-oxindole compound was not genotoxic in the standard battery of genotoxicity tests (GLP), including a bacterial reverse mutation assay, an in vitro chromosome aberration assay in cultured human lymphocytes, and an in vivo rat bone marrow micronucleus test.

[17] = Phototoxicity assays (in vitro or in vivo)
[18] = 4-week (GLP) repeat-dose dermal toxicity study in minipigs; details: minipig, in vivo, topical or ocular, 30 mg/kg/day dermal, day 28; for AUC(0-t): read-out: AUC0-24 h
Experimental: Repeat-dose dermal toxicity of a pharmaceutical composition comprising the spiro-oxindole compound was evaluated in minipigs in a 7-day (non-GLP) dermal study and in a 4-week (GLP) dermal study with a 2-week recovery period. In addition, a dose range-finding (DRF) dermal study in minipigs was conducted to aid in dose selection for a 39-week dermal toxicity study in minipigs.
However, the vehicle ointment produced in all treatment groups transient, mild to moderate, and occasionally severe dermal irritation that returned to normal during the recovery period. This correlated with minimal epidermal hyperplasia observed microscopically in the treated skin across all groups.

O=C1N(Cc2ccc(C(F)(F)F)o2)c2ccccc2[C@]12COc1cc3c(cc12)OCO3 [spiro-oxindole compound, (S)-1′-{[5-(trifluoromethyl)furan-2-yl]methyl}spiro[furo[2,3-f][1,3]benzodioxole-7,3′-indol]-2′(1′H)-one]
contribution to spiro-oxindole compound metabolism [1]: major contributors | total number of metabolites identified [2]: 8 metabolites | skin sensitization [3]: not a skin sensitizer | efficacy compared with gabapentin [4]: comparable efficacy to gabapentin | spiro-oxindole compound plasma concentrations without evidence of a DDI [5]: up to 752 ng/mL and ≤ 1.8 μM | drug-drug interaction with iv midazolam (CYP3A4 substrate) ([5]; plasma concentrations up to 752 ng/mL (i.e., 1.8 μM)): no evidence of a DDI | protein bound [6]: 98.3% | effect on midazolam pharmacokinetics (in words) [7]: no relevant effect on midazolam pharmacokinetics | protein bound [8]: 99.4% | minimum effective dose associated with pain relief [9]: 2 % (w/w) | contribution to spiro-oxindole compound metabolism [10]: likely to play a less extensive role | in vitro metabolic stability in hepatocytes [11]: 61% | potency of block against NaV1.7, inactivated state compared with resting state [12]: approximately 220 fold | in vitro metabolic stability in hepatocytes [13]: 16% | contribution to spiro-oxindole compound metabolism [14]: limited or no involvement | in vitro metabolic stability in hepatocytes [15]: 18% | genotoxicity [16]: not genotoxic | phototoxicity potential [17]: did not show phototoxicity potential | Cmax ([18]; female minipigs): 20 ng/mL | AUC(0-t) ([18]; female minipigs): 382 ng·h/mL | Cmax ([18]; male minipigs): 21 ng/mL | AUC(0-t) ([18]; male minipigs): 365 ng·h/mL
